Results reported in US10556888B2, “Pyrazole compounds or salts thereof, preparation methods therefor, herbicidal compositions and use thereof” (QINGDAO KINGAGROOT CHEMICAL COMPOUNDS CO., LTD, priority 2015, dated 2020).

Columns and labels:
[1] = system: Monocotyledonous and dicotyledonous weed; test: Post-emergence test experiment, weed control effect (Table 2); type: in vivo; design: key to weed control effect, Setaria viridis (level) / weed control effect, Rorippa indica (level) / weed control effect, Abutilon theophrasti (level) / weed control effect, Echinochloa crus-galli (level) / weed control effect, Digitaria sanguinalis (level): Level 10: completely dead; Level 9: above 90% growth inhibition rate; Level 8: above 80% growth inhibition rate; Level 7: above 70% growth inhibition rate; Level 6: above 60% growth inhibition rate; Level 5: above 50% growth inhibition rate; Level 4: above 30% growth inhibition rate; Level 3: above 20% growth inhibition rate; Level 2: above 10% growth inhibition rate; Level 1: above 1-10% growth inhibition rate; Level 0: no effect; settings: 3 weeks after spraying, greenhouse
Experimental: (§1) Post-emergence test experiment: Monocotyledonous and dicotyledonous weed seeds and main crop seeds (i.e. wheat, corn, rice, soybean, cotton, oilseed, millet and sorghum.) were put into a plastic pot loaded with soil. Then covered with 0.5-2 cm soil, the seeds were allowed to grow in good greenhouse environment. The test plants were treated at 2-3 leaf stage 2-3 weeks after sowing. The test compounds of the invention were dissolved with acetone respectively, then added with 80 tween and diluted by certain amount of water to certain concentration. The solution was sprayed to the plants with a sprayer. Then the plants were cultured for 3 weeks in the greenhouse.

[2] = system: main crop (wheat, corn, rice, soybean, cotton, oilseed, millet and sorghum); test: Post-emergence test experiment, main crops (Table 2); type: in vivo; design: key: Level 10: completely dead; Level 9: above 90% growth inhibition rate; Level 8: above 80% growth inhibition rate; Level 7: above 70% growth inhibition rate; Level 6: above 60% growth inhibition rate; Level 5: above 50% growth inhibition rate; Level 4: above 30% growth inhibition rate; Level 3: above 20% growth inhibition rate; Level 2: above 10% growth inhibition rate; Level 1: above 1-10% growth inhibition rate; Level 0: no effect; settings: 3 weeks after spraying, greenhouse
Experimental: as §1

Row | SMILES | weed control effect, Abutilon theophrasti (level) ([1]; 120 g/ha) | weed control effect, Bidens pilosa (level) ([1]; 120 g/ha) | weed control effect, Digitaria sanguinalis (level) ([1]; 120 g/ha) | weed control effect, Echinochloa crus-galli (level) ([1]; 120 g/ha) | weed control effect, Rorippa indica (level) ([1]; 120 g/ha) | weed control effect, Setaria viridis (level) ([1]; 120 g/ha) | effect on crop, corn (level) ([2]; 120 g/ha) | effect on crop, rice (level) ([2]; 120 g/ha) | effect on crop, wheat (level) ([2]; 120 g/ha) | weed control effect, Abutilon theophrasti (level) ([1]; 30 g/ha) | weed control effect, Bidens pilosa (level) ([1]; 30 g/ha) | weed control effect, Digitaria sanguinalis (level) ([1]; 30 g/ha) | weed control effect, Echinochloa crus-galli (level) ([1]; 30 g/ha) | weed control effect, Rorippa indica (level) ([1]; 30 g/ha) | weed control effect, Setaria viridis (level) ([1]; 30 g/ha) | effect on crop, corn (level) ([2]; 30 g/ha) | effect on crop, rice (level) ([2]; 30 g/ha) | effect on crop, wheat (level) ([2]; 30 g/ha) | also measured
1 | Cc1cnn(Cc2c(S(C)(=O)=O)ccc(C(=O)c3cnn(C)c3OC(=O)c3cnn(C)c3)c2Cl)c1 [Compound 17] | 6 (Level 6: above 60% growth inhibition rate) | 6 (Level 6: above 60% growth inhibition rate) | 0 | 10 | 4 (Level 4: above 30% growth inhibition rate) | 1 (Level 1: above 1-10% growth inhibition rate) | 0 | 0 | 0 |  |  |  |  |  |  |  |  |  | 
2 | Cn1cc(C(=O)Oc2c(C(=O)c3ccc(S(C)(=O)=O)c(Cn4cc(Cl)cn4)c3Cl)c(C3CC3)nn2C)cn1 [Compound 18] | 9 (Level 9: above 90% growth inhibition rate) | 8 (Level 8: above 80% growth inhibition rate) | 4 (Level 4: above 30% growth inhibition rate) | 10 | 10 | 5 (Level 5: above 50% growth inhibition rate) | 0 | 1 (Level 1: above 1-10% growth inhibition rate) | 0 |  |  |  |  |  |  |  |  |  | 
3 | Cn1cc(C(=O)Oc2c(C(=O)c3ccc(S(C)(=O)=O)c(Cn4cccn4)c3Cl)c(C3CC3)nn2C)cn1 [Compound 19] |  |  |  |  |  |  |  |  |  |  |  |  |  |  |  |  |  |  | weed control effect, Abutilon theophrasti (level) ([1]; 60 g/ha): 10; weed control effect, Bidens pilosa (level) ([1]; 60 g/ha): 8 (Level 8: above 80% growth inhibition rate); weed control effect, Digitaria sanguinalis (level) ([1]; 60 g/ha): 10; weed control effect, Echinochloa crus-galli (level) ([1]; 60 g/ha): 10; weed control effect, Rorippa indica (level) ([1]; 60 g/ha): 10; weed control effect, Setaria viridis (level) ([1]; 60 g/ha): 8 (Level 8: above 80% growth inhibition rate); effect on crop, corn (level) ([2]; 60 g/ha): 0; effect on crop, rice (level) ([2]; 60 g/ha): 1 (Level 1: above 1-10% growth inhibition rate); effect on crop, wheat (level) ([2]; 60 g/ha): 0
4 | Cc1cc(C)n(Cc2c(S(C)(=O)=O)ccc(C(=O)c3c(C4CC4)nn(C)c3OC(=O)c3cnn(C)c3)c2Cl)n1 [Compound 20] | 6 (Level 6: above 60% growth inhibition rate) | 6 (Level 6: above 60% growth inhibition rate) | 1 (Level 1: above 1-10% growth inhibition rate) | 10 | 4 (Level 4: above 30% growth inhibition rate) | 5 (Level 5: above 50% growth inhibition rate) | 0 | 0 | 0 |  |  |  |  |  |  |  |  |  | 
5 | Cc1ccn(Cc2c(S(C)(=O)=O)ccc(C(=O)c3c(C4CC4)nn(C)c3OC(=O)c3cnn(C)c3)c2Cl)n1 [Compound 21] | 6 (Level 6: above 60% growth inhibition rate) | 6 (Level 6: above 60% growth inhibition rate) | 1 (Level 1: above 1-10% growth inhibition rate) | 10 | 4 (Level 4: above 30% growth inhibition rate) | 3 (Level 3: above 20% growth inhibition rate) | 0 | 0 | 0 |  |  |  |  |  |  |  |  |  | 
6 | Cc1cnn(Cc2c(S(C)(=O)=O)ccc(C(=O)c3c(C4CC4)nn(C)c3OC(=O)c3cnn(C)c3)c2Cl)c1 [Compound 22] | 6 (Level 6: above 60% growth inhibition rate) | 6 (Level 6: above 60% growth inhibition rate) | 1 (Level 1: above 1-10% growth inhibition rate) | 10 | 4 (Level 4: above 30% growth inhibition rate) | 3 (Level 3: above 20% growth inhibition rate) | 0 | 0 | 0 |  |  |  |  |  |  |  |  |  | 
7 | CCOc1c(C(=O)Oc2c(C(=O)c3ccc(S(C)(=O)=O)c(Cn4cc(C)cn4)c3Cl)cnn2C)cnn1C [Compound 23] | 6 (Level 6: above 60% growth inhibition rate) | 6 (Level 6: above 60% growth inhibition rate) | 1 (Level 1: above 1-10% growth inhibition rate) | 10 | 4 (Level 4: above 30% growth inhibition rate) | 3 (Level 3: above 20% growth inhibition rate) | 0 | 0 | 0 |  |  |  |  |  |  |  |  |  | 
8 | Cc1nn(C)cc1C(=O)Oc1c(C(=O)c2ccc(S(C)(=O)=O)c(COCC(F)F)c2Cl)c(C)nn1C [Compound 25] |  |  |  |  |  |  |  |  |  | 7 (Level 7: above 70% growth inhibition rate) | 7 (Level 7: above 70% growth inhibition rate) | 10 | 10 | 5 (Level 5: above 50% growth inhibition rate) | 9 (Level 9: above 90% growth inhibition rate) | 0 | 6 (Level 6: above 60% growth inhibition rate) | 0 | 
9 | CCOCc1c(S(C)(=O)=O)ccc(C(=O)c2c(C)nn(C)c2OC(=O)c2cn(C)nc2C)c1Cl [Compound 27] |  |  |  |  |  |  |  |  |  | 7 (Level 7: above 70% growth inhibition rate) | 7 (Level 7: above 70% growth inhibition rate) | 7 (Level 7: above 70% growth inhibition rate) | 9 (Level 9: above 90% growth inhibition rate) | 5 (Level 5: above 50% growth inhibition rate) | 6 (Level 6: above 60% growth inhibition rate) | 0 | 6 (Level 6: above 60% growth inhibition rate) | 0 | 
10 | COCCOCc1c(S(C)(=O)=O)ccc(C(=O)c2c(C)nn(C)c2OC(=O)c2cn(C)nc2C)c1Cl [Compound 28] |  |  |  |  |  |  |  |  |  | 7 (Level 7: above 70% growth inhibition rate) | 7 (Level 7: above 70% growth inhibition rate) | 7 (Level 7: above 70% growth inhibition rate) | 9 (Level 9: above 90% growth inhibition rate) | 5 (Level 5: above 50% growth inhibition rate) | 5 (Level 5: above 50% growth inhibition rate) | 0 | 6 (Level 6: above 60% growth inhibition rate) | 0 | 
11 | CCc1nn(C)c(OC(=O)c2cn(C)nc2C)c1C(=O)c1ccc(S(C)(=O)=O)c(Cn2nc(C)cc2C)c1Cl [Compound 30] | 6 (Level 6: above 60% growth inhibition rate) | 6 (Level 6: above 60% growth inhibition rate) | 4 (Level 4: above 30% growth inhibition rate) | 8 (Level 8: above 80% growth inhibition rate) | 4 (Level 4: above 30% growth inhibition rate) | 10 | 0 | 0 | 0 |  |  |  |  |  |  |  |  |  | 
12 | CCOCc1c(S(C)(=O)=O)ccc(C(=O)c2c(CC)nn(C)c2OC(=O)c2cn(C)nc2C)c1Cl [Compound 31] |  |  |  |  |  |  |  |  |  | 7 (Level 7: above 70% growth inhibition rate) | 7 (Level 7: above 70% growth inhibition rate) | 10 | 10 | 5 (Level 5: above 50% growth inhibition rate) | 9 (Level 9: above 90% growth inhibition rate) | 0 | 5 (Level 5: above 50% growth inhibition rate) | 0 | 
13 | CCc1nn(C)c(OC(=O)c2cn(C)nc2C)c1C(=O)c1ccc(S(C)(=O)=O)c(COCC(F)(F)F)c1Cl [Compound 32] |  |  |  |  |  |  |  |  |  | 7 (Level 7: above 70% growth inhibition rate) | 7 (Level 7: above 70% growth inhibition rate) | 10 | 10 | 5 (Level 5: above 50% growth inhibition rate) | 10 | 1 (Level 1: above 1-10% growth inhibition rate) | 5 (Level 5: above 50% growth inhibition rate) | 0 | 
